Structures are written as SMILES. Counter-ions that a name gives are not always drawn.

The target of this test is T1, human β-Secretase (Homo sapiens, UniProt P56817).
T1 construct: The soluble part of the human β-Secretase (AA 1-AA 460) was cloned; made in house
T1 sequence (P56817 22-460): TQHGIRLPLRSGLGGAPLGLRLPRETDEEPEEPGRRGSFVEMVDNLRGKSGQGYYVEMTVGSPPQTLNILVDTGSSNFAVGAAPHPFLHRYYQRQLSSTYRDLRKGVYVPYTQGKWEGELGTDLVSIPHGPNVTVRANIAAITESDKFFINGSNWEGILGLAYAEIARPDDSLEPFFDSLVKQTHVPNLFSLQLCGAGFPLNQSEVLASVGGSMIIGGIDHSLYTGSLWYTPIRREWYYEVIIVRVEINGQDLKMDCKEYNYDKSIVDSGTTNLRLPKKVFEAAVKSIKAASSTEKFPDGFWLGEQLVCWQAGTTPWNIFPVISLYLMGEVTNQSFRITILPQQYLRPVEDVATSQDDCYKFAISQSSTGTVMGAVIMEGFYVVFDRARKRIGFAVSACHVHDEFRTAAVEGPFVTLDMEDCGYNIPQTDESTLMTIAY
The test is described as follows: TR-FRET assay. Format: biochemical.
Compound `NC1=NC(c2ccc(C(F)(F)F)cc2)(c2cccc(-c3cncnc3)c2)c2ccccc21` (centres unmarked) [Example 60, 1-(3-Pyrimidin-5-ylphenyl)-1-[4-(trifluoromethyl)phenyl]1H-isoindol-3-amine 0.25 acetate] showed an IC50 of 570 nM.

Compound `Cc1nn(C)c(Cl)c1S(=O)(=O)Oc1cccc(C2(c3cc(Cl)nc(Cl)c3)N=C(N)c3ccccc32)c1` (centres unmarked) [Example 131, 3-[3-Amino-1-(2,6-dichloropyridin-4-yl)-1H-isoindol-1-yl]phenyl 5-chloro-1,3-dimethyl-1H-pyrazole-4-sulfonate] displayed a 50% inhibitory concentration (IC50) of 1070 nM.

Consider `COc1ccc(C2(c3cccc(-c4ccccc4C(N)=O)c3)N=C(N)c3ccccc32)cc1` (centres unmarked) [Example 55, 3′-[3-Amino-1-(4-methoxyphenyl)-1H-isoindol-1-yl]biphenyl-2-carboxamide 0.5 acetate], for which inhibition was half-maximal at 2000 nM (IC50).

For `NC1=NC(c2cccc(-c3cncnc3)c2)(c2ccc3c(c2)OCO3)c2ccccc21` (centres unmarked) [Example 30, 3-Benzo[1,3]dioxol-5-yl-3-(3-pyrimidin-5-ylphenyl)-3H-isoindol-1-ylamine trifluoroacetate], the IC50 was 942 nM.

For the compound `NC1=NC(c2cccc(-c3cccnc3F)c2)(c2ccnc(Cl)c2)c2ccccc21` (centres unmarked) [Example 121, 1-(2-Chloropyridin-4-yl)-1-[3-(2-fluoropyridin-3-yl)phenyl]-1H-isoindol-3-amine], the IC50 is 80 nM.

Consider `COc1ccc(C2(c3ccc(O)c(-c4cccnc4)c3)N=C(N)c3ccccc32)cc1` (centres unmarked) [Example 7, 4-[3-Amino-1-(4-methoxy-phenyl)-1H-isoindol-1-yl]-2-pyridin-3-yl-phenol trifluoroacetate], for which half-maximal inhibition (IC50) required 86 nM.

In the case of `NC1=NC(c2cccc(-c3cccnc3)c2)(c2ccc3c(c2)OCO3)c2ccccc21` (centres unmarked) [Example 28, 3-Benzo[1,3]dioxol-5-yl-3-(3-pyridin-3-yl)-3H-isoindol-1-ylamine trifluoroacetate], the IC50 turned out to be 1610 nM.

Compound `NC1=NC(c2cccc(-c3cccnc3F)c2)(c2ccncc2F)c2ccccc21` (centres unmarked) [Example 73, 1-(3-Fluoropyridin-4-yl)-1-[3-(2-fluoropyridin-3-yl)phenyl]-1H-isoindol-3-amine 1.25 acetate] showed an IC50 of 130 nM.

Take `CC(C)c1cc(C2(c3cccc(-c4cncnc4)c3)N=C(N)c3ccccc32)ccn1` (centres unmarked) [Example 114, 1-(2-Isopropylpyridin-4-yl)-1-(3-pyrimidin-5-ylphenyl)-1H-isoindol-3-amine]: the IC50 amounted to 300 nM.

Compound `COc1ccc(C#N)c(-c2cccc(C3(C)N=C(N)c4ccccc43)c2)c1` (centres unmarked) [Example 93, 3′-(3-Amino-1-methyl-1H-isoindol-1-yl)-5-methoxybiphenyl-2-carbonitrile acetate] showed an IC50 of 4350 nM.

Turning to `COc1cc(OS(C)(=O)=O)cc(-c2cccc(C3(c4ccc(OS(C)(=O)=O)cc4)N=C(N)c4ccccc43)c2)c1` (centres unmarked) [Example 41, Methanesulfonic acid 4-[3-amino-1-(5′-methane-sulfonyloxy-3′-methoxy-biphenyl-3-yl)-1H-isoindol-1-yl]-phenyl ester trifluoroacetate], 575 nM corresponded to half-maximal inhibition (IC50).

Take `COc1ncc(C2(c3cccc(-c4cccnc4F)c3)N=C(N)c3ccccc32)cn1` (centres unmarked) [Example 107, 1-[3-(2-Fluoropyridin-3-yl)phenyl]-1-(2-methoxypyrimidin-5-yl)-1H-isoindol-3-amine]: the IC50 was 440 nM.

As for `CC(C)c1cc(C2(c3cccc(-c4cccnc4F)c3)N=C(N)c3ccccc32)ccn1` (centres unmarked) [Example 115, 1-[3-(2-Fluoropyridin-3-yl)phenyl]-1-(2-isopropylpyridin-4-yl)-1H-isoindol-3-amine], half-maximal inhibition (IC50) required 210 nM.

Compound `NC1=NC(c2cccc(-c3cccnc3)c2)(c2ccc3c(c2)OCCO3)c2ccccc21` (centres unmarked) [Example 17, 3-(2,3-Dihydrobenzo[b][1,4]dioxin-6-yl)-3-(3-(pyridin-3-yl)phenyl)-3H-isoindol-1-amine trifluoroacetate] returned an IC50 of 1520 nM.

Source of the values: patent US7855213B2 (AstraZeneca AB, priority 2006, dated 2010).
